The test system of this assay is glioblastoma cell line GL261. Briefly: GL261 glioblastoma tumor grafted on the chorio-allantoic membrane (CAM) of embryonated chicken eggs, tumor weight at E19. It is filed as in vivo, chicken embryo (Fertilized White Leghorn eggs). The settings on record: for Tumor weight (mg) (N = 7 to 12) / Tumor weight (mg) (N = 18): after 10 days of treatment; for Effect on GL261 tumor size/weight on the upper CAM, in words: test compound (100 nM) together with temozolomide (500 microM), compared to temozolomide alone or compound alone; for Effect on GL261 tumor size, in words: test compound alone (100 nM). How it is done: Fertilized White Leghorn eggs were incubated at 38° C. with 60% relative humidity for 9 days. At this time (E9), the chorio-allantoic membrane (CAM) was dropped by drilling a small hole through the eggshell into the air sac and a 1 cm^2 window was cut in the eggshell above the CAM.
Cultured glioblastoma cell line GL261 were detached by trypsinization, washed with complete medium, labeled and suspended in serum free DMEM. An inoculum of GL261 cells was added onto the CAM of each egg. Eggs were then randomized in 6 groups.
They were then treated during 10 days, every two days (E10, E12, E14, E16, E18), by dropping 100 μl of test compound (100 nM), Temozolomide (500 microM), test compound (100 nM) and Temozolomide (500 microM), or Control (0.02% DMSO) onto the tumor.
At day E19 the upper portion of the CAM was removed, transferred in PBS and the tumors were then carefully cut away from normal CAM tissue. Tumors were then weighted. In parallel, a 1 cm^2 portion of the lower CAM was collected to evaluate the number of nodules, containing expressing cells. The fluorescent nodules were visualized in situ using whole mounts of fixed tissue and flattened between a hollow glass slide and a thick coverslip. In order to number the nodules, a thorough and complete visual scan of the piece of the lower CAM was done using fluorescent microscope.
Glioblastoma cell line GL261 was grafted on the chorio-allantoic membrane (CAM) of Fertilized White Leghorn eggs. The tumors were treated every two days with test compound ([…]), temolozomide (500 microM) or test compound (100 nM) and temozolomide (500 microM). For the control, the tumors were treated with 0.02% DMSO. Between seven (7) to eighteen (18) eggs were treated for each condition.

Setting [1] is: combination test compound/Temozolomide 100 nM/500 μM, control 106.65.
The mark [2] stands for this setting: test compound alone 100 nM, control (0.02% DMSO) 106.65.
Where [3] appears, read: combination test compound/Temozolomide 100 nM/500microM, control 120.5.

Entries after “also recorded” stand apart in the source; their conditions may differ. Structures can show the parent of a compound that is named as a salt.

Here are results for 13 compounds from patent publication US10675257B2, “Method of treating cancer with a combination of benzylideneguanidine derivatives and chemotherapeutic agent” (InFlectis BioScience, priority 2015, dated 2020).

With `Cn1nnc2c(C(N)=O)ncn2c1=O` [Temozolomide, 3,4-dihydro-3-methyl-4-oxoimidazo [5,1-d]-as-tetazine-8-carboxamide, reference compound], the “Tumor weight (mg) (N = 7 to 12)” value (Temozolomide alone 500 μM, control (0.02% DMSO) 106.65) is recorded as 90.17 mg. The “Tumor weight (mg) (N = 18)” value (Temozolomide alone 500microM, control (0.02% DMSO) 120.5) is on record as 86.3 mg.

Turning to `CC(C)CCO/N=C(\N)N/N=C/c1ccccc1Cl` [Compound 11, Formate Salt], the “Effect on GL261 tumor size, in words” value is “reduces the tumor size”. The “Tumor weight (mg) (N = 7 to 12)” value under setting [1] is recorded as 67.29 mg. Moreover, for the setting “Formate Salt”, the “Effect on GL261 tumor size/weight on the upper CAM, in words” value is on record as “synergistic reduction of GL261 tumor weight; also recorded: synergistic effect to reduce the tumor size”. Moreover, the “Tumor weight (mg) (N = 7 to 12)” value under setting [2] came out at 87.63 mg.

For `N/C(=N\OCCO)N/N=C/c1ccccc1Cl` [Compound 16, 2-(2-chlorobenzylidene)-N′-(2-hydroxyethoxy)hydrazinecarboximidamide], the “Effect on GL261 tumor size/weight on the upper CAM, in words” value is on record as “further reduction of GL261 tumor weight; also recorded: further reduce the tumor size” and the “Effect on GL261 tumor size, in words” value is on record as “display anti-glioma activity by reducing the tumor size”. Also, the “Tumor weight (mg) (N = 7 to 12)” value under setting [1] was 48.11 mg.

As to `CCO/N=C(\N)N/N=C/c1ccccc1Cl` [Compound 20, 2-(2-chlorobenzylidene)-N′-ethoxyhydrazinecarboximidamide], the “Effect on GL261 tumor size/weight on the upper CAM, in words” value is listed as “further reduction of GL261 tumor weight; also recorded: further reduce the tumor size” and the “Effect on GL261 tumor size, in words” value is recorded as “display anti-glioma activity by reducing the tumor size”. Moreover, under setting [1], the “Tumor weight (mg) (N = 7 to 12)” value is 73.51 mg.

Turning to `CCCCO/N=C(\N)N/N=C/c1ccccc1Cl` [Compound 28, N′-butoxy-2-(2-chlorobenzylidene)hydrazinecarboximidamide], the “Effect on GL261 tumor size/weight on the upper CAM, in words” value is listed as “further reduction of GL261 tumor weight; also recorded: further reduce the tumor size” and the “Effect on GL261 tumor size, in words” value was “display anti-glioma activity by reducing the tumor size”. Further, under setting [1], the “Tumor weight (mg) (N = 7 to 12)” value was 51.33 mg.

`CCCO/N=C(\N)N/N=C/c1c(F)cccc1Cl` [Compound 29, 2-(2-chloro-6-fluorobenzylidene)-N′-propoxyhydrazinecarboximidamide]: the “Effect on GL261 tumor size/weight on the upper CAM, in words” value is listed as “further reduction of GL261 tumor weight; also recorded: further reduce the tumor size” and the “Effect on GL261 tumor size, in words” value is recorded as “display anti-glioma activity by reducing the tumor size”. For the same compound, the “Tumor weight (mg) (N = 7 to 12)” value under setting [1] is reported as 54.13 mg.

`CCSCCO/N=C(\N)N/N=C/c1ccccc1Cl` [Compound 25, 2-(2-chlorobenzylidene)-N-[2-(ethylsulfanyl)ethoxy]hydrazinecarboximidamide]: under setting [1], the “Tumor weight (mg) (N = 7 to 12)” value stood at 43.6 mg.

In the case of `CC(=O)O.N=C(N)N/N=C/c1ccncc1Cl` [Compound 6, 2-[(3-chloropyridin-4-yl)methylidene]hydrazinecarboximidamide Acetate], the “Tumor weight (mg) (N = 7 to 12)” value was determined as 70.45 mg under setting [1] and 107.76 mg under setting [2]. Besides, the “Effect on GL261 tumor size/weight on the upper CAM, in words” value (Acetate) is given as “synergistic reduction of GL261 tumor weight; also recorded: synergistic effect to reduce the tumor size”. In addition, for the setting “Acetate”, the “Effect on GL261 tumor size, in words” value is “no effect on tumor size reduction; also recorded: no effect to reduce the tumor size”.

In the case of `NC(N)=N/N=C/c1c(Cl)cccc1Cl` [Compound 1, 2-(2,6-dichlorobenzylidene)hydrazine carboximidamide, reference compound], the “Tumor weight (mg) (N = 18)” value under setting [3] is reported as 68.3 mg and the “Tumor weight (mg) (N = 18)” value (test compound alone 100 nM, control (0.02% DMSO) 120.5) is given as 115 mg.

For `C=CCO/N=C(\N)N/N=C/c1ccccc1Cl` [Compound 15, 2-(2-chlorobenzylidene)-N′-(prop-2-en-1-yloxy)hydrazine Carboximidamide], the “Effect on GL261 tumor size/weight on the upper CAM, in words” value was “synergistic reduction of GL261 tumor weight; also recorded: synergistic effect to reduce the tumor size” and the “Effect on GL261 tumor size, in words” value is reported as “reduces the tumor size”. Besides, under setting [1], the “Tumor weight (mg) (N = 7 to 12)” value is listed as 40.66 mg. The “Tumor weight (mg) (N = 7 to 12)” value under setting [2] was 63.44 mg.

On to `CCO/N=C(\N)N/N=C/c1ccncc1Cl` [Compound 26, 2-[(3-chloropyridin-4-yl)methylidene]-N-ethoxyhydrazinecarboximidamide], for which the “Effect on GL261 tumor size/weight on the upper CAM, in words” value is “further reduction of GL261 tumor weight; also recorded: further reduce the tumor size” and the “Effect on GL261 tumor size, in words” value is recorded as “display anti-glioma activity by reducing the tumor size”. For the same compound, under setting [1], the “Tumor weight (mg) (N = 7 to 12)” value is recorded as 66.23 mg.

Turning to `CCCO/N=C(\N)N/N=C/c1ccccc1Cl` [Compound 22, 2-(2-chlorobenzylidene)-N-propoxyhydrazinecarboximidamide], the “Effect on GL261 tumor size/weight on the upper CAM, in words” value was “synergistic reduction of GL261 tumor weight; also recorded: synergistic effect to reduce the tumor size”. Further, under setting [3], the “Tumor weight (mg) (N = 18)” value is reported as 48.4 mg.

Regarding `CCCO/N=C(\N)N/N=C/c1ccncc1Cl` [Compound 33, 2-[(3-chloropyridin-4-yl)methylidene]-N-propoxyhydrazinecarboximidamide], the “Effect on GL261 tumor size/weight on the upper CAM, in words” value is reported as “further reduction of GL261 tumor weight; also recorded: further reduce the tumor size” and the “Effect on GL261 tumor size, in words” value is reported as “display anti-glioma activity by reducing the tumor size”. Besides, under setting [1], the “Tumor weight (mg) (N = 7 to 12)” value is reported as 62.42 mg.
